Laboratory results: patent publication US8343953B2, “Pharmaceutical compounds” (Astex Therapeutics Limited, priority 2005, dated 2013)
pIC50: −log10 of the molar value.

Columns and labels:
P70S6 kinase (T412E) = biological target: T1, P70S6 kinase (T412E) (Homo sapiens, UniProt P23443, T412E); assay: P70s6 radiometric assay; format: biochemical; conditions: ATP approximately 15 μM; enzyme 2 nM; read-out: IC50 (anti-P70S6K activity)
T1 construct: purchased Upstate 14-486
Experimental: P7086 enzyme is bought from Upstate and used at 2 nM in the assay.
In the phosphoryl transfer reaction, the ^33P-γ phosphate from ATP is transferred to the serine residue. The reaction mixture is transferred to a phosphocellulose filter plate where the peptide binds and the unused ATP is washed away. After washing, scintillant is added and the incorporated activity measured by scintillation counting.
S6 kinase substrate cocktail from Upstate (#20-122)
• 10 mM MOPS pH 7.0 • 0.1 mg/ml BSA • 0.001% Brij-35 • 0.5% glycerol • 0.2 mM EDTA • 10 mM MgCl2 • 0.01% β-mercaptoethanol • Made as a 10× stock, stored at […] in 2 ml aliquots • 15 μM ATP
ATP will break down over time, keep on ice as far as possible and use small aliquots to ensure the stock is fresh. • γ^33P-ATP APBiotech (BF1000) • 12.5% orthophosphoric acid • 0.5% orthophosphoric acid • Microscint 20 (Packard) Assay Preparation • Enzyme mix (per 1 ml—100 assay points): • 743.75 μl H2O • […] • 3.75 μl 10 mM ATP • 2.5 μl enzyme • Substrate mix (per 1 ml—100 assay points): • 250 μl S6 cocktail substrate • 750 μl H2O • 3.5 μl ^33P-ATP (BF1000 from APBiotech)
Compounds—prepare a dilution curve in DMSO in a polypropylene 96 well plate to 40× final assay concentration (final DMSO 2.5%).
In a polypropylene 96 well plate add in order: • 5 μl compound • 10 μl substrate mix • 10 μl enzyme mix
Final ATP concentration is approximately 15 μM. KM for ATP calculated to 47 uM radiometrically. Controls are “no compound” (DMSO only) and “no enzyme” (use 10 μl of the enzyme mix prior to adding enzyme). Cover with a plate seal (TopSeal A—Packard) or plastic lid from filter plate (moderate radiation barrier). Mix by gentle shaking. Incubate at room temperature for 50 minutes. Stop the reaction by adding 20 μl of 2% orthophosphoric acid.
Pre-wet the wells of a Millipore MAPH NOB plate with 50 μl of 0.5% orthophosphoric acid wash buffer. Filter the liquid through on a Millipore vacuum filtration unit. Transfer the whole of the stopped reaction to the wells. Filter through. Wash twice with 200 μl of 0.5% orthophosphoric acid wash buffer. Vacuum to near dryness. Remove the plate support and allow to the filters to dry further on tissue paper. Snap the plate into an adapter for the Packard TopCount. Add 20 μl of Microscint 20 scintillant, seal with a sheet of Topseal A and count for 30 s on the TopCount.
The compounds of examples 4, 13, 21, 22, 23, 42, 47, 71, 84, 85 and 98 were tested for anti-P70S6K activity (assay as described above): […]

ROCK-II (h) = ROCK-II (h) (Homo sapiens, UniProt O75116); assay: ROCK-II (h) assay (radiometric, 33P-ATP filtermat); format: biochemical; conditions: read-out: IC50 (anti-ROCK-II activity)
Experimental: ROCK-II (h) Assay Protocol
In a final reaction volume of 25 μl, ROCK-II (h) (5-10 mU) is incubated with 50 mM Tris pH 7.5, 0.1 mM EGTA, 30 μM […], 10 mM MgAcetate and [γ-^33P-ATP] (specific activity approx. 500 cpm/pmol, concentration as required). The reaction is initiated by the addition of the MgATP mix. After incubation for 40 minutes at room temperature, the reaction is stopped by the addition of 5 μl of a 3% phosphoric acid solution. 10 μl of the reaction is then spotted onto a P30 filtermat and washed three times for 5 minutes in 75 mM phosphoric acid and once in methanol prior to drying and scintillation counting.
The compounds of examples 14, 22, 23, 57, 59 and 84 were tested for anti-ROCK-II activity (assay as described above): […]

rat MM1 hepatoma cells = conditions: cited from earlier work
MM1 cells = conditions: continuous delivery using osmotic pumps; syngeneic rats; cited from earlier work
[1] = tested on: isolated rabbit urinary bladder smooth muscle; conditions: cited from earlier work

T1 sequence (P23443 1-421 T412E limits assumed): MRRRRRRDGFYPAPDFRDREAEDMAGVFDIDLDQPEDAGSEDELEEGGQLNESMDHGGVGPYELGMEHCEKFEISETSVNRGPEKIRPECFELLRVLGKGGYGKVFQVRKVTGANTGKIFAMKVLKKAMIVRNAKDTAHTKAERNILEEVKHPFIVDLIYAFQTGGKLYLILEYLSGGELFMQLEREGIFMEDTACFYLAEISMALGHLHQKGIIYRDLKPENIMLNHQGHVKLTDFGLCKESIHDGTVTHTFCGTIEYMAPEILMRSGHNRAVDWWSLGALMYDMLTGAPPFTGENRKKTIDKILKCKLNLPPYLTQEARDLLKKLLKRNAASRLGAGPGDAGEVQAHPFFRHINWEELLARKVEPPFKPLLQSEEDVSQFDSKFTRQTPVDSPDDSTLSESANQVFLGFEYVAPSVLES
Chain of ROCK-II (h) (O75116 whole entry): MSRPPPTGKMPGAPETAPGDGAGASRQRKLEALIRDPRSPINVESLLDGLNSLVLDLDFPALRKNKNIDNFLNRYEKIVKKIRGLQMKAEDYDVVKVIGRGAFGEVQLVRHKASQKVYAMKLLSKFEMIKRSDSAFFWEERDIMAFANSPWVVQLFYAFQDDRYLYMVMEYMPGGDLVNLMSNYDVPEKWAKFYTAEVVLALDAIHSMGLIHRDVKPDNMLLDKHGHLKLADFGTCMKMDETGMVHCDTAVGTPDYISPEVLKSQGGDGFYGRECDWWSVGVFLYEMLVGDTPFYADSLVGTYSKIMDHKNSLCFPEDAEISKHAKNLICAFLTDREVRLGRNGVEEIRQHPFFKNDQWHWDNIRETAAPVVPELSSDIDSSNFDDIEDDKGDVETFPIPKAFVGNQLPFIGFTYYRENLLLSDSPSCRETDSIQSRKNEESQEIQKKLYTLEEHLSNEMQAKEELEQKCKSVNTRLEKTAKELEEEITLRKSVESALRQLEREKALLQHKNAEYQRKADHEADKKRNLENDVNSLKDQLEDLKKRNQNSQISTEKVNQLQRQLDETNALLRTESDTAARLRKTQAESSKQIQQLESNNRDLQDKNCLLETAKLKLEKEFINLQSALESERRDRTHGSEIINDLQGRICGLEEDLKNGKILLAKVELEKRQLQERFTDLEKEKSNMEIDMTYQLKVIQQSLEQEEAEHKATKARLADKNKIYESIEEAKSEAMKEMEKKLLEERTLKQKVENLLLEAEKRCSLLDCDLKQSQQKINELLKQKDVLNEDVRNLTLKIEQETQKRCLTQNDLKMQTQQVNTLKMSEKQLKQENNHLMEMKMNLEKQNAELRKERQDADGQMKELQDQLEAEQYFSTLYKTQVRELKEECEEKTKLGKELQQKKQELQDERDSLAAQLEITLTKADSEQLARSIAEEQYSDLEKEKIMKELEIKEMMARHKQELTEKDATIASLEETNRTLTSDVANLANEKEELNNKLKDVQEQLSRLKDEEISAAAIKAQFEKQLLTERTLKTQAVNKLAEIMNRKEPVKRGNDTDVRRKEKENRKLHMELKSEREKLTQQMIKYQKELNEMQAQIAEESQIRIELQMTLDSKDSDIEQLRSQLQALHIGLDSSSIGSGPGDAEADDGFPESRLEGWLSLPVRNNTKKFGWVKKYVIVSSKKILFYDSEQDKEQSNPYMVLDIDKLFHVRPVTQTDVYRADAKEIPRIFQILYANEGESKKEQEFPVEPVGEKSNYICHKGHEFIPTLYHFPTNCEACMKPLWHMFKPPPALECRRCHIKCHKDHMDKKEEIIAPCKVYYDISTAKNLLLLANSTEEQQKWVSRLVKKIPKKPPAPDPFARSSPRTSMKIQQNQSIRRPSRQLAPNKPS

Compound	pIC50 (P70S6 kinase (T412E))	pIC50 (ROCK-II (h))	also measured
CNCC(Oc1ccc(Cl)cc1)c1ccc(-c2cn[nH]c2)cc1 (stereo not drawn) [Example 71, {2-(4-Chloro-phenoxy)-2-[4-(1H-pyrazol-4-yl)-phenyl]-ethyl}-methyl-amine]	> 7.00		
CNCC(c1ccc(Oc2cnccn2)cc1)c1ccc(-c2cn[nH]c2)cc1 (stereo not drawn) [Example 47, Methyl-{2-[4-(pyrazin-2-yloxy)-phenyl]-2-[4-(1H-pyrazol-4-yl)-phenyl]-ethyl}-amine]	> 7.00		
CNCCC(Oc1cccc(Cl)c1)c1ccc(-c2cn[nH]c2)cc1 (stereo not drawn) [Example 59, {3-(3-Chloro-phenoxy)-3-[4-(1H-pyrazol-4-yl)-phenyl]-propyl}-methyl-amine]		> 7.00	
CNC[C@H](c1ccc(Cl)cc1)c1ccc(-c2cn[nH]c2)cc1 [Example 23, {2-(4-Chloro-phenyl)-2-[4-(1H-pyrazol-4-yl)-phenyl]-ethyl}-methyl-amine (S)]	> 7.00	> 7.00	
Clc1ccc(C(c2ccc(-c3cn[nH]c3)cc2)N2CCNCC2)cc1 (stereo not drawn) [Example 57, 1-{(4-Chloro-phenyl)-[4-(1H-pyrazol-4-yl)-phenyl]-methyl}-piperazine]		> 7.00	
CNCC(c1ccc(Cl)cc1)c1ccc(-c2cn[nH]c2)cc1 (stereo not drawn) [Example 21, {2-(4-Chloro-phenyl)-2-[4-(1H-pyrazol-4-yl)-phenyl]-ethyl}-methyl-amine]	> 7.00		
NCC(c1ccc(Cl)cc1)c1ccc(-c2cn[nH]c2)cc1 (stereo not drawn) [Example 4, 2-(4-Chloro-phenyl)-2-[4-(1H-pyrazol-4-yl)-phenyl]-ethylamine]	> 7.00		
C[C@@H](N)[C@H]1CC[C@H](C(=O)Nc2ccncc2)CC1 [Example Y-27632]			Rho-mediated activation of actomyosin (rat MM1 hepatoma cells): blocked; invasive activity of MM1 cells (rat MM1 hepatoma cells): blocked; dissemination of MM1 cells (MM1 cells): considerably reduced; bethanechol-evoked contractions [1]: attenuates
NCCC(c1ccc(-c2cn[nH]c2)cc1)c1ccc(Cl)c(Cl)c1 (stereo not drawn) [Example 13, 3-(3,4-Dichloro-phenyl)-3-[4-(1H-pyrazol-4-yl)-phenyl]-propylamine]	> 7.00		
CNCC(c1ccc(Cl)cc1)c1ccc(-c2cn[nH]c2)cc1 (stereo not drawn) [Example 42, {2-(4-Chloro-phenyl)-2-[4-(1H-pyrazol-4-yl)-phenyl]-ethyl}-methyl-amine]	> 7.00		
NCC(O)(c1ccc(Cl)cc1)c1ccc(-c2cn[nH]c2)cc1 (stereo not drawn) [Example 84, 2-Amino-1-(4-chloro-phenyl)-1-[4-(1H-pyrazol-4-yl)-phenyl]-ethanol]	> 7.00	> 7.00	
Clc1ccc(C2(c3ccc(-c4cn[nH]c4)cc3)CCNCC2)cc1 [Example 14, 4-(4-Chloro-phenyl)-4-[4-(1H-pyrazol-4-yl)-phenyl]-piperidine]		> 7.00	
Clc1ccc(C2(c3ccc(-c4cn[nH]c4)cc3)CCNCC2)cc1Cl [Example 85, 4-(3,4-Dichloro-phenyl)-4-[4-(1H-pyrazol-4-yl)-phenyl]-piperidine]	> 7.00		
CNC[C@@H](c1ccc(Cl)cc1)c1ccc(-c2cn[nH]c2)cc1 [Example 22, {2-(4-Chloro-phenyl)-2-[4-(1H-pyrazol-4-yl)-phenyl]-ethyl}-methyl-amine (R)]	> 7.00	> 7.00	
NCC(c1ccc(-c2cn[nH]c2)cc1)c1ccc(Cl)c(Cl)c1 (stereo not drawn) [Example 98, 2-(3,4-Dichloro-phenyl)-2-[4-(1H-pyrazol-4-yl)-phenyl]-ethylamine]	> 7.00		
